{"source": "patent US20240400553A1", "about": "“AMINE BASED MATRIPTASE 2 INHIBITORS AND USES THEREOF” (Disc Medicine, Inc., priority 2023, published 2024)", "note": "pKi: −log10 of the molar value.", "data": [{"target": "T1, Human Recombinant Matriptase 2 (Homo sapiens, UniProt Q8IU80)", "T1 construct": "made in house", "T1 sequence (Q8IU80 1-811)": "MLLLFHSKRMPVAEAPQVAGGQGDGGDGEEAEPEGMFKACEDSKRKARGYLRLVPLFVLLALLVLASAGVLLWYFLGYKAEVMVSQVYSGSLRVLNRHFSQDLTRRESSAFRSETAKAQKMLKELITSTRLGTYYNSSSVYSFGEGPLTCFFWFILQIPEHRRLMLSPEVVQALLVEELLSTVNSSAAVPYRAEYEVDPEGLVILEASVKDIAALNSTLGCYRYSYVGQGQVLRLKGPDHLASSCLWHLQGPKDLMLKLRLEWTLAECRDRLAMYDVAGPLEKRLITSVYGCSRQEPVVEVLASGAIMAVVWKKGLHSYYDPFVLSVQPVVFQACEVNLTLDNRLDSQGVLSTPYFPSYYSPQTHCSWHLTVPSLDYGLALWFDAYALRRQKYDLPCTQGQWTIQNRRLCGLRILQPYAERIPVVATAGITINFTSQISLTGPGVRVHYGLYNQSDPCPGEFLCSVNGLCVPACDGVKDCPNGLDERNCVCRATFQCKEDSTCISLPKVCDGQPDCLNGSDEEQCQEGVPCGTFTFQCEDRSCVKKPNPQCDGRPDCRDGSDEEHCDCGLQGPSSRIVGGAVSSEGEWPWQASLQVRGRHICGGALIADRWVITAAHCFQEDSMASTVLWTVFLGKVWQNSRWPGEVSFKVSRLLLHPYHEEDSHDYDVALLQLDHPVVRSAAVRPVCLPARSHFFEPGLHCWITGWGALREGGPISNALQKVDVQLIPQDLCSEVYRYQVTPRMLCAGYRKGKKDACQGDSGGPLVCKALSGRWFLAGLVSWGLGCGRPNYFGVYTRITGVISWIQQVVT", "test": "Matriptase 2 inhibition, fluorescence based assay (Method I)", "assay_type": "biochemical", "details": "Table A; Ki of Matriptase-2; read-out: Mat-2 Ki", "summary_of_the_method": "(§1)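 Fluorogenic readout (Ex 360/Em 480 nm) taken 60 min after adding 62 μM Boc-Gln-Ala-Arg-AMC, following 30-min enzyme–compound preincubation at 25 °C. Conditions: 3.5 nM in-house enzyme, pH 7.5 Tris/NaCl/gelatin buffer, 1% DMSO; percent inhibition versus concentration fitted by variable-slope sigmoidal regression.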", "values": [{"compound": "CN1CCC(CCS(=O)(=O)NC(=O)c2cc3ccc(CN)nc3n2Cc2cc(NS(=O)(=O)Cc3ccccc3)cc3ccccc23)CC1", "note": "[Compound 83, 6-(aminomethyl)-N-[2-(1-methylpiperidin-4-yl)-ethanesulfonyl]-1-{[3-(phenylmethanesulfon-amido)naphthalen-1-yl]-methyl}-1H-pyrrolo[2,3-b]pyridine-2-carboxamide]", "pKi": "6.30 to 7.00"}, {"compound": "NCc1ccc2cc(C(=O)OCC[C@H]3CCCCN3)n(Cc3cc(NS(=O)(=O)Cc4ccccc4)cc4ccccc34)c2n1", "note": "(racemic) [Compound 32, 2-(piperidin-2-yl)ethyl 6-(aminomethyl)-1-{[3-(phenylmethanesulfon-amido)naphthalen-1-yl]-methyl}-1H-pyrrolo[2,3-b]pyridine-2-carboxylate]", "pKi": "≥ 7.00"}, {"compound": "Cc1cccc(C)c1CS(=O)(=O)Nc1cc(Cn2c(C(=O)OC[C@H]3CNCCO3)cc3ccc(CN)nc32)c2ccccc2c1", "note": "[Compound 182, [(2R)-morpholin-2-yl]-methyl 6-(aminometh-yl)-1-({3-[(2,6-dimeth-ylphenyl)methanesulfon-amido]naphthalen-1-yl}-methyl)-1H-pyrrolo[2,3-b]pyridine-2-carboxylate]", "pKi": "≥ 7.00"}, {"compound": "CC(C)n1nccc1COC(=O)c1cc2ccc(CN)nc2n1Cc1cc(NS(=O)(=O)Cc2ccccc2)cc2ccccc12", "note": "[Compound 111, [1-(propan-2-yl)-1H-pyrazol-5-yl]methyl 6-(aminomethyl)-1-{[3-(phenylmethanesulfon-amido)naphthalen-1-yl]-methyl}-1H-pyrrolo-[2,3-b]pyridine-2-car-boxylate]", "pKi": "6.30 to 7.00"}, {"compound": "COCCN1CCC[C@H](COC(=O)c2cc3ccc(CN)nc3n2Cc2cc(NS(=O)(=O)Cc3ccsc3)cc3ccccc23)C1", "note": "(racemic) [Compound 166, [1-(2-methoxyethyl)-piperidin-3-yl]methyl 6-(aminomethyl)-1-({3-[(thiophen-3-yl)methane-sulfonamido]naphthalen-1-yl}methyl)-1H-pyr-rolo[2,3-b]pyridine-2-carboxylate]", "pKi": "≥ 7.00"}, {"compound": "CN(C)CCCCOC(=O)c1cc2ccc(CN)nc2n1Cc1cc(NS(=O)(=O)Cc2ccccc2)cc2ccccc12", "note": "[Compound 25, 4-(dimethylamino)butyl 6-(aminomethyl)-1-{[3-(phenylmethanesulfon-amido)naphthalen-1-yl]-methyl}-1H-pyrrolo[2,3-b]pyridine-2-carboxylate]", "pKi": "≥ 7.00"}, {"compound": "CC(C)(C)n1cncc1COC(=O)c1cc2ccc(CN)nc2n1Cc1cc(NS(=O)(=O)Cc2ccccc2)cc2ccccc12", "note": "[Compound 29, (1-tert-butyl-1H-imid-azol-5-yl)methyl 6-(aminomethyl)-1-{[3-(phenylmethanesulfon-amido)naphthalen-1-yl]-methyl}-1H-pyrrolo[2,3-b]pyridine-2-carboxylate]", "pKi": "≥ 7.00"}, {"compound": "CC(=O)O[C@H](C)OC(=O)c1cc2ccc(CN)nc2n1Cc1cc(NS(=O)(=O)Cc2ccccc2)cc2ccccc12", "note": "(racemic) [Compound 89, 1-[6-(aminomethyl)-1-{[3-(phenylmethanesul-fonamido)naphthalen-1-yl]methyl}-1H-pyrrolo-[2,3-b]pyridine-2-carbon-yloxy]ethyl acetate]", "pKi": "6.30 to 7.00"}, {"compound": "CN(C)CCOC(=O)c1cc2ccc(CN)nc2n1Cc1cc(NS(=O)(=O)Cc2cccs2)cc2ccccc12", "note": "[Compound 148, 2-(dimethylamino)ethyl 6-(aminomethyl)-1-({3-[(thiophen-2-yl)methane-sulfonamido]naphthalen-1-yl}methyl)-1H-pyr-rolo[2,3-b]pyridine-2-carboxylate]", "pKi": "≥ 7.00"}, {"compound": "NCc1ccc2cc(C(=O)OCc3cn(CC(F)(F)F)cn3)n(Cc3cc(NS(=O)(=O)Cc4ccccc4)cc4ccccc34)c2n1", "note": "[Compound 101, [1-(2,2,2-trifluoroethyl)-1H-imidazol-4-yl]methyl 6-(aminomethyl)-1-{[3-(phenylmethanesulfon-amido)naphthalen-1-yl]-methyl}-1H-pyrrolo[2,3-b]pyridine-2-carboxylate]", "pKi": "6.30 to 7.00"}, {"compound": "NCc1ccc2cc(C(=O)OCC3CCOCC3)n(Cc3cc(NS(=O)(=O)Cc4ccccc4)cc4ccccc34)c2n1", "note": "[Compound 79, (oxan-4-yl)methyl 6-(aminomethyl)-1-{[3-(phenylmethanesulfon-amido)naphthalen-1-yl]-methyl}-1H-pyrrolo[2,3-b]pyridine-2-carboxylate]", "pKi": "≥ 7.00"}, {"compound": "NCc1ccc2cc(C(=O)OCc3ccncc3)n(Cc3cc(NS(=O)(=O)Cc4ccccc4)cc4ccccc34)c2n1", "note": "[Compound 100, (pyridin-4-yl)methyl 6-(aminomethyl)-1-{[3-(phenylmethanesulfon-amido)naphthalen-1-yl]-methyl}-1H-pyrrolo[2,3-b]pyridine-2-carboxylate]", "pKi": "6.30 to 7.00"}]}, {"target": "T1, Human Recombinant Matriptase 2", "test": "Matriptase 2 inhibition, fluorescence based assay (Method I)", "assay_type": "biochemical", "details": "Table A; Ki of Matriptase-2 given as class symbols; read-out: Mat-2 Ki", "summary_of_the_method": "as §1", "values": [{"compound": "CN1CCC[C@@H]1COC(=O)Nc1cc(Cn2c(C(=O)O)cc3ccc(CN)nc32)c2ccccc2c1", "note": "(racemic) [Compound 335, 6-(aminomethyl)-1-{[3-({[(1-methylpyrrolidin-2-yl)methoxy]carbon-yl}amino)naphthalen-1-yl]methyl}-1H-pyrrolo-[2,3-b]pyridine-2-car-boxylic acid]", "pKi": "6.30 to 7.00"}, {"compound": "CN(C)CC(=O)Nc1nnc(-c2cc3ccc(CN)nc3n2Cc2cc(NS(=O)(=O)Cc3ccccc3)cc3ccccc23)o1", "note": "[Compound 349]", "pKi": "≥ 7.00"}, {"compound": "NCc1ccc2cc(C(=O)O)n(Cc3cc(NS(=O)(=O)Cc4ccoc4)cc4ccccc34)c2n1", "note": "[Compound 220, 6-(aminomethyl)-1-({3-[(furan-3-yl)methane-sulfonamido]naphthalen-1-yl}methyl)-1H-pyr-rolo[2,3-b]pyridine-2-carboxylic acid]", "pKi": "6.30 to 7.00"}, {"compound": "CN1CCC(OC(=O)c2cc3ccc(CN)cc3n2Cc2cc(NS(=O)(=O)Cc3ccccc3)cc3ccccc23)CC1", "note": "[Compound 371, 1-methylpiperidin-4-yl 6-(aminomethyl)-1-((3-((phenylmethyl)sulfonamido)naphthalen-1-yl)methyl)-1H-indole-2-carboxylate]", "pKi": "≥ 7.00"}, {"compound": "C[C@H](c1ccccc1)S(=O)(=O)Nc1cc(Cn2c(C(=O)OCC3CCN(C)CC3)cc3ccc(CN)cc32)c2ccccc2c1", "note": "[Compound 378, (1-methylpiperidin-4-yl)-methyl 6-(aminomethyl)-1-({3-[(1R)-1-phenyl-ethane-sulfonamido]-naphthalen-1-yl}methyl)-1H-indole-2-carboxylate]", "pKi": "≥ 7.00"}, {"compound": "CN1CCC(COC(=O)c2cc3ccc(CN)nc3n2Cc2cc(NS(=O)(=O)Cc3cnsc3)cc3ccccc23)CC1", "note": "[Compound 210, (1-methylpiperidin-4-yl)-methyl 6-(aminomethyl)-1-({3-[(1,2-thiazol-4-yl)-methanesulfonamido]-naphthalen-1-yl}methyl)-1H-pyrrolo[2,3-b]pyr-idine-2-carboxylate]", "pKi": "≥ 7.00"}, {"compound": "NCc1ccc2cc(C(=O)O)n(Cc3cc(NS(=O)(=O)CC4CCNCC4)cc4ccccc34)c2n1", "note": "[Compound 216, 6-(aminomethyl)-1-({3-[(piperidin-4-yl)methane-sulfonamido]naphthalen-1-yl}methyl)-1H-pyr-rolo[2,3-b]pyridine-2-carboxylic acid]", "pKi": "6.30 to 7.00"}, {"compound": "NCc1ccc2cc(C(=O)O)n(Cc3cc(NS(=O)(=O)Cc4cccc(F)c4)cc4ccccc34)c2n1", "note": "[Compound 229, 6-(aminomethyl)-1-({3-[(3-fluorophenyl)meth-anesulfonamido]naph-thalen-1-yl}methyl)-1H-pyrrolo[2,3-b]pyridine-2-carboxylic acid]", "pKi": "6.30 to 7.00"}, {"compound": "NCc1ccc2cc(-c3cnn[nH]3)n(Cc3cc(NS(=O)(=O)Cc4ccccc4)cc4ccccc34)c2n1", "note": "[Compound 350, N-(4-((6-(aminomethyl)-2-(1H-1,2,3-triazol-5-yl)-1H-pyrrolo[2,3-b]pyridin-1-yl)methyl)naphthalen-2-yl)-1-phenylmethanesulfonamide]", "pKi": "6.30 to 7.00"}, {"compound": "NCc1ccc2cc(C(=O)O)n(Cc3cc(NS(=O)(=O)Cc4c(F)cccc4F)cc4ccccc34)c2n1", "note": "[Compound 246, 6-(aminomethyl)-1-({3-[(2,6-difluorophenyl)-methanesulfonamido]-naphthalen-1-yl}meth-yl)-1H-pyrrolo[2,3-b]-pyridine-2-carboxylic acid]", "pKi": "6.30 to 7.00"}, {"compound": "NCc1ccc2cc(C(=O)O)n(Cc3cc(NS(=O)(=O)C[C@H]4CCOC4)cc4ccccc34)c2n1", "note": "(racemic) [Compound 262, rac-6-(aminomethyl)-1-[(3-{[(3R)-oxolan-3-yl]-methanesulfonamido}-naphthalen-1-yl)methyl]-1H-pyrrolo[2,3-b]pyr-idine-2-carboxylic acid]", "pKi": "6.30 to 7.00"}]}, {"target": "T1, Human Recombinant Matriptase 2", "test": "Matriptase 2 inhibition, fluorescence based assay (Method I)", "assay_type": "biochemical", "details": "Table B; Human Recombinant Matriptase 2, 3.5 nM enzyme, 62 μM substrate, 30 mins preincubation; read-out: Mean Ki", "summary_of_the_method": "as §1", "values": [{"compound": "CN1CCC(COC(=O)c2cc3ccc(CN)nc3n2Cc2cc(NS(=O)(=O)Cc3ccccc3)cs2)CC1", "note": "[Compound 2.45]", "pKi": "< 5.52"}, {"compound": "CN1CCC(CCOC(=O)c2cc3ccc(CN)nc3n2Cc2cc(NS(=O)(=O)Cc3ccsc3)cc3c2CCCC3)CC1=O", "note": "(stereo not shown) [Compound 2.2]", "pKi": "6.30 to 7.00"}]}]}
